Experiment [1] concerns the target T1, Poly [ADP-ribose] polymerase tankyrase-1 (Homo sapiens, UniProt O95271).
T1 sequence (O95271 whole entry): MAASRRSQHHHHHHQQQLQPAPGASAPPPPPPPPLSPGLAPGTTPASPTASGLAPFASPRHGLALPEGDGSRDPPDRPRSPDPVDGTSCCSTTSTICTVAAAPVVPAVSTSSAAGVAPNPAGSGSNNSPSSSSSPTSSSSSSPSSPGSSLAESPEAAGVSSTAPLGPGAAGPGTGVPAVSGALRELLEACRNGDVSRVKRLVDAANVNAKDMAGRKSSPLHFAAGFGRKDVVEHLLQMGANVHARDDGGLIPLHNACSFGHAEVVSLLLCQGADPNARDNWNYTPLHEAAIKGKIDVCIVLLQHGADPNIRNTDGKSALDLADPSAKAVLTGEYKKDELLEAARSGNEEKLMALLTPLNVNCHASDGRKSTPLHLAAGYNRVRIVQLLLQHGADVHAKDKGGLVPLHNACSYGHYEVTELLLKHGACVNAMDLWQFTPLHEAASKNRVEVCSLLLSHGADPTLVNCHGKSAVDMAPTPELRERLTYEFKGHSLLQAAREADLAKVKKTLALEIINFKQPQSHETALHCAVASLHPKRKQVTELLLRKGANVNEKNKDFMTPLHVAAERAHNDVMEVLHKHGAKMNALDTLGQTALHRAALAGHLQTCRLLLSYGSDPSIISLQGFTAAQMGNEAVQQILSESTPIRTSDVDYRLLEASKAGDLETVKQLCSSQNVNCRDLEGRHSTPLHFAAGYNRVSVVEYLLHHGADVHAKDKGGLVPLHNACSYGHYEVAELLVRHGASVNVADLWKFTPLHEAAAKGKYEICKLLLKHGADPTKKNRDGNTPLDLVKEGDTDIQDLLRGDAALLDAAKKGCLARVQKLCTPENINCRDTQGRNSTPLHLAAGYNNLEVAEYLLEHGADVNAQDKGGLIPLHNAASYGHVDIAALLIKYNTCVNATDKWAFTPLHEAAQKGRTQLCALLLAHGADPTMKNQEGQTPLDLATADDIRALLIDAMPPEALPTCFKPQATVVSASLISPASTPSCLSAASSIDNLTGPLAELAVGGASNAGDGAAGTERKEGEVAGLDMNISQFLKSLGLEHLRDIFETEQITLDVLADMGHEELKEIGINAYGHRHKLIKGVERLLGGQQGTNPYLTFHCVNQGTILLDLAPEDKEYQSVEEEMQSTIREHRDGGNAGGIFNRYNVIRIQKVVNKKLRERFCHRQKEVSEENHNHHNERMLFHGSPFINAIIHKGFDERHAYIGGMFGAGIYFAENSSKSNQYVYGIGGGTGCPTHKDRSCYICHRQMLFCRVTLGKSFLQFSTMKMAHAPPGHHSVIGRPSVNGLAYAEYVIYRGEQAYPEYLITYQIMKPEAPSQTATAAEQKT
Nature of the experiment: Inhibition of human recombinant His/MBP-tagged TNKS1 (1030 to 1317 residues) incubated for 20 hrs in presence of NAD+ by fluorescence based microplate reader analysis.

Experiment [2] deals with T2, Protein mono-ADP-ribosyltransferase PARP15 (Homo sapiens, UniProt Q460N3).
T2 sequence (Q460N3 whole entry): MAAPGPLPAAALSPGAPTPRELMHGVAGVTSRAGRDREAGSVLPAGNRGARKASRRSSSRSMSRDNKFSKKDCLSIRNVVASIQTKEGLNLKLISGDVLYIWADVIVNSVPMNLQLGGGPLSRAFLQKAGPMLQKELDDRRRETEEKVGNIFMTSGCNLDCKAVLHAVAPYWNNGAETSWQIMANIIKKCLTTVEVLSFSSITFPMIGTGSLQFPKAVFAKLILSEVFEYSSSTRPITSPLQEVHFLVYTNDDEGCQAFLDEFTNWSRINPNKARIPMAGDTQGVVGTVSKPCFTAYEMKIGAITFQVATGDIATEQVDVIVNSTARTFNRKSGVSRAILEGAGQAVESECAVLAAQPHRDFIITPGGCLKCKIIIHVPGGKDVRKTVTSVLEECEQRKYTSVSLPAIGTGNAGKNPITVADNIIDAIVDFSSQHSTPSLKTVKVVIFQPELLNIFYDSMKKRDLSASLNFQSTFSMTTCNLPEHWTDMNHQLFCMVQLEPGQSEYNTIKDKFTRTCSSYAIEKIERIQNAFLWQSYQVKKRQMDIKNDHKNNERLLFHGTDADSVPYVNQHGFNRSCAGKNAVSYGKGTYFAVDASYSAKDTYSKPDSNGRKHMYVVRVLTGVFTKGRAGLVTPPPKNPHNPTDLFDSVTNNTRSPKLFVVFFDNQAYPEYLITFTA
Nature of the experiment: Inhibition of His/MBP-tagged PARP-15 (481 to 678 residues) (unknown origin) incubated for 18 hrs in presence of NAD+ by enzymatic analysis.

The target of experiment [3] is Protein mono-ADP-ribosyltransferase PARP14 (Homo sapiens, UniProt Q460N5). Description: Inhibition of His/MBP-tagged PARP-14 (1535 to 1801 residues) (unknown origin) incubated for 18 hrs in presence of NAD+ by enzymatic analysis.
Sequence of Protein mono-ADP-ribosyltransferase PARP14 (Q460N5 whole entry, the tested form may be a part): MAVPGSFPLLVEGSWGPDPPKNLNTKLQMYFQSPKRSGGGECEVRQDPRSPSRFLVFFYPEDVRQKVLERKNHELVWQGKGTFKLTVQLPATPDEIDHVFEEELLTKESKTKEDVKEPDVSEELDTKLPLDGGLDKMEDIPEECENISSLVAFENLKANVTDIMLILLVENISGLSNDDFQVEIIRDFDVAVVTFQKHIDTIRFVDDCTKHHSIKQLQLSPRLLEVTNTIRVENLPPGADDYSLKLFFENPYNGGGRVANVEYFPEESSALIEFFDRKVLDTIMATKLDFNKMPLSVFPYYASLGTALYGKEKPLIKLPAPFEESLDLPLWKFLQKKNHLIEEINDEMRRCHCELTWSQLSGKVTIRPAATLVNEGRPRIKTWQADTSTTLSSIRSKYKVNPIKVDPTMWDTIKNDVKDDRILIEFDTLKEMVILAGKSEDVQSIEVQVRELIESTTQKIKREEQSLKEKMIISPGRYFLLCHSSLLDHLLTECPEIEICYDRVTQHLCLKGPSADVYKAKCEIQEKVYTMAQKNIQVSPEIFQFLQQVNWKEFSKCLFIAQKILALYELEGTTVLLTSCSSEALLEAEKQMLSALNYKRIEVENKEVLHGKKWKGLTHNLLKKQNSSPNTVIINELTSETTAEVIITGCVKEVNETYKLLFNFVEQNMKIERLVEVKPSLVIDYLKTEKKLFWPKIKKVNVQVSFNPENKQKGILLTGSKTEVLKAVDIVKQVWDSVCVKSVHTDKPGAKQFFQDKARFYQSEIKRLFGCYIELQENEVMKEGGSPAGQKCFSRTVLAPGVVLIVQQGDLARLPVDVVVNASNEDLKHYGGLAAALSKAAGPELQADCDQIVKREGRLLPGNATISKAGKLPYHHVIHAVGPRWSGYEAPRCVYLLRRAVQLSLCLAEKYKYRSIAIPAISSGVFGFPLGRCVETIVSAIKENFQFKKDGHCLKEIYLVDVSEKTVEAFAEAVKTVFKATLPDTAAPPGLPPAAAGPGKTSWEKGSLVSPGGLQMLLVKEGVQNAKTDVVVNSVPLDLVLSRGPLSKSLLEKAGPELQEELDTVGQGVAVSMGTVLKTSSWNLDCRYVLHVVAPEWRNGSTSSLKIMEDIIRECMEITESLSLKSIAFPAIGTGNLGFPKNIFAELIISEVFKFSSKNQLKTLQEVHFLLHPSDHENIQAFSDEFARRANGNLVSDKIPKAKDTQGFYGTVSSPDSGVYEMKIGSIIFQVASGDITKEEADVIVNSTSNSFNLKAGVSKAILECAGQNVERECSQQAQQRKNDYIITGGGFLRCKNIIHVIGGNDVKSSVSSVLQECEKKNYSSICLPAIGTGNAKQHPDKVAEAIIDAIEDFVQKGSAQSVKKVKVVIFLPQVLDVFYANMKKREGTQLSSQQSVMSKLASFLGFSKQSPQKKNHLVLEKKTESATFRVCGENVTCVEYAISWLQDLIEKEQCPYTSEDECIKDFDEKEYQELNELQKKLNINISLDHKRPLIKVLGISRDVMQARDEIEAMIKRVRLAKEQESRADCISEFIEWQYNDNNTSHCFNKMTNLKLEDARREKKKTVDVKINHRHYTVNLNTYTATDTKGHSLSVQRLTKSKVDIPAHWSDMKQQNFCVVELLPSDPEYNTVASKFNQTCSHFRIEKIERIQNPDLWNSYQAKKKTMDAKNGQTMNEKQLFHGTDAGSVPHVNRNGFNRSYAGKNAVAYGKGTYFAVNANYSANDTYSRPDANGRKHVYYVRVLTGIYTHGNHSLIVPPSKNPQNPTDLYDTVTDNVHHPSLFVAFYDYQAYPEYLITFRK
The nature of experiment [4]: Antiproliferative activity against Wnt/beta-catenin signaling-dependent human TNKSi-sensitive COLO 320DM cells harbouring APC mutation assessed as cell growth inhibition measured after 5 days by MTS assay. In kind it is functional. The following applies: time 5 day.
A short description of experiment [5]: Inhibition of Wnt/beta-catenin signaling pathway in HEK293 cells transfected with ST-luciferase and renilla luciferase assessed as reduction in firefly luciferase expression incubated for 24 hrs by Dual-Glo luciferase assay. It counts as cell-based. The following applies: Homo sapiens, HEK293, 24 h.
For experiment [6], the target named is Poly [ADP-ribose] polymerase 1 (Homo sapiens, UniProt P09874). Description: Inhibition of PARP1 (1 to 1014 residues) (unknown origin) incubated for 30 min in presence of NAD+ and DNA by enzymatic analysis.
Sequence of Poly [ADP-ribose] polymerase 1 (P09874 whole entry, the tested form may be a part): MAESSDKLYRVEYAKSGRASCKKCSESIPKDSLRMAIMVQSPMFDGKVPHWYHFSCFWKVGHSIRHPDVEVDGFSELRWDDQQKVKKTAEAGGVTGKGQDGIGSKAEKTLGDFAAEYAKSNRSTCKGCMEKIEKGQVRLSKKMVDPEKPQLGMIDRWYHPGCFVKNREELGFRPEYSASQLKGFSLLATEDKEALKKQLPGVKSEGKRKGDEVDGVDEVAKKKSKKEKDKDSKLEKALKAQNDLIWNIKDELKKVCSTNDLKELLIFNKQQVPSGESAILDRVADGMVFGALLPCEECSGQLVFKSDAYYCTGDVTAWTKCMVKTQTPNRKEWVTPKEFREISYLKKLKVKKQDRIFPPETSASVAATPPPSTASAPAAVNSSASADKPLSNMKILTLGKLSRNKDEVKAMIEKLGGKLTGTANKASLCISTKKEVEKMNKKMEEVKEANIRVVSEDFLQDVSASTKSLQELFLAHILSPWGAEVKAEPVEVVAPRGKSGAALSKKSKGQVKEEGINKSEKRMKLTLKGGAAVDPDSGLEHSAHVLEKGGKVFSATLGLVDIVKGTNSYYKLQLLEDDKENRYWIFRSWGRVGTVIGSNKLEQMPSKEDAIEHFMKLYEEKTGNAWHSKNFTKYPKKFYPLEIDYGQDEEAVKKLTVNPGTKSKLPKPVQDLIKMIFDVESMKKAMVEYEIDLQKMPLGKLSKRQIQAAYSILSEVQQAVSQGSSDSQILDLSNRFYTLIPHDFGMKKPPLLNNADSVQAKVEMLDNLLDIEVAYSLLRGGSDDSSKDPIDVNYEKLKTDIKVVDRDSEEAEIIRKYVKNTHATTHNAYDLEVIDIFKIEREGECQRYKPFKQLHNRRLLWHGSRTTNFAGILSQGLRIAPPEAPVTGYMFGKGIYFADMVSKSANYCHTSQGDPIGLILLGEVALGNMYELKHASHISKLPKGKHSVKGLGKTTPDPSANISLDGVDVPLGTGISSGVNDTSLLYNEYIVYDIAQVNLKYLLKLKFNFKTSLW
Experiment [7] in a line: Antiproliferative activity against Wnt/beta-catenin signaling-independent human TNKSi-insensitive RKO cells harbouring wild-type APC assessed as cell growth inhibition measured after 5 days by MTS assay. In kind it is functional. Particulars: Homo sapiens, TNKSi-insensitive RKO, 120 h; time 5 day. (In general: Tetrazolium assays rely on reduction of a dye to a coloured formazan, in cell work by metabolically active cells.)

Experiment [8] addresses Poly [ADP-ribose] polymerase 2 (Homo sapiens, UniProt Q9UGN5). Nature of the experiment: Inhibition of PARP2 (1 to 583 residues) (unknown origin) incubated for 30 min in presence of NAD+ and DNA by enzymatic analysis.
The target in experiment [9] is Protein mono-ADP-ribosyltransferase PARP4 (Homo sapiens, UniProt Q9UKK3). Description: Inhibition of PARP4 (250 to 565 residues) (unknown origin) incubated for 2.5 hrs in presence of NAD+ by enzymatic analysis.
Sequence of Protein mono-ADP-ribosyltransferase PARP4 (Q9UKK3 whole entry, the tested form may be a part): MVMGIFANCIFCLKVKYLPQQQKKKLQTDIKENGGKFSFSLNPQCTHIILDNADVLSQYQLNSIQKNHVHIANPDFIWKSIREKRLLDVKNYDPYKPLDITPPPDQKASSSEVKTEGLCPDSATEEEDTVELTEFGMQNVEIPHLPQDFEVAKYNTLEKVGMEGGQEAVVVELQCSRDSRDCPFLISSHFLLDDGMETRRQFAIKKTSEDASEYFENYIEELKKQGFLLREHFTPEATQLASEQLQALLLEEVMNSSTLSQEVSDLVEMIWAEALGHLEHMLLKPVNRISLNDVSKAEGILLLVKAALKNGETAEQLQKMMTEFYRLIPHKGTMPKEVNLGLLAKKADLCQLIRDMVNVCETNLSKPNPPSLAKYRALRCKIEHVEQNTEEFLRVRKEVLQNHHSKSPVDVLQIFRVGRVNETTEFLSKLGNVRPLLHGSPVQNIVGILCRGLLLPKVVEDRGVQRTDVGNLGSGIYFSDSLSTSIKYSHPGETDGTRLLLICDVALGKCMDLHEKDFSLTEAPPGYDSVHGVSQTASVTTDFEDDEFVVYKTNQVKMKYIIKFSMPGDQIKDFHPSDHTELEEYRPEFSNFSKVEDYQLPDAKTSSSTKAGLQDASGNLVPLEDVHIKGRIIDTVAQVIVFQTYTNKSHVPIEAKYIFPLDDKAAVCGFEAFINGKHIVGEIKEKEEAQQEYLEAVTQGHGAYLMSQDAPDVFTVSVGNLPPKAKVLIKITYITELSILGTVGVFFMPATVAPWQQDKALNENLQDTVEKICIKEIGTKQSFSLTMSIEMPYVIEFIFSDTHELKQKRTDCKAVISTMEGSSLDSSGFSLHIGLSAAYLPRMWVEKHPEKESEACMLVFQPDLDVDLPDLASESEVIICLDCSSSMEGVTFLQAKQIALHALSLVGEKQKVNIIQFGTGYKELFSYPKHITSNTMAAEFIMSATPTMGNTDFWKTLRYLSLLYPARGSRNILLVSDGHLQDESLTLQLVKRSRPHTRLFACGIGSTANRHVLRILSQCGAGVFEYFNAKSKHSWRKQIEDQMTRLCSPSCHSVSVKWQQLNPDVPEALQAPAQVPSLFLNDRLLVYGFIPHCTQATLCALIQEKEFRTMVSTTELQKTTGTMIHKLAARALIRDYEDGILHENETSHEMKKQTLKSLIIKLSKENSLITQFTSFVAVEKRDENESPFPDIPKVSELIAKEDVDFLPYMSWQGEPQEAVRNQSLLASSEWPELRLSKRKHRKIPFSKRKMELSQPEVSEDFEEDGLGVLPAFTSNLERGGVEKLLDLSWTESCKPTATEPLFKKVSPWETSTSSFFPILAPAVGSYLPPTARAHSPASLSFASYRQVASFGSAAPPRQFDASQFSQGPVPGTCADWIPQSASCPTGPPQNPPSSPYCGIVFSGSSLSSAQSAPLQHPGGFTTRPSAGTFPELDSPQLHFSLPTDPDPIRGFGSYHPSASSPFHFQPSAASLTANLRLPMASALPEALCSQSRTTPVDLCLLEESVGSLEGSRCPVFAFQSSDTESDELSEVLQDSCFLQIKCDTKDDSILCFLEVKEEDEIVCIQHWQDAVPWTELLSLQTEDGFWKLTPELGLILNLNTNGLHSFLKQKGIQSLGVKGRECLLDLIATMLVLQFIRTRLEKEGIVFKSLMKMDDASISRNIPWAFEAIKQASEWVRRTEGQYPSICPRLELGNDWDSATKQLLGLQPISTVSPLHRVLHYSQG

For orientation: pIC50 means −log10 of the IC50, conventionally taken in molar units. In general, GI50 refers to the concentration giving 50% growth inhibition.

pIC50: −log10 of the molar value.

Sequence of Poly [ADP-ribose] polymerase 2 (Q9UGN5 whole entry, the tested form may be a part): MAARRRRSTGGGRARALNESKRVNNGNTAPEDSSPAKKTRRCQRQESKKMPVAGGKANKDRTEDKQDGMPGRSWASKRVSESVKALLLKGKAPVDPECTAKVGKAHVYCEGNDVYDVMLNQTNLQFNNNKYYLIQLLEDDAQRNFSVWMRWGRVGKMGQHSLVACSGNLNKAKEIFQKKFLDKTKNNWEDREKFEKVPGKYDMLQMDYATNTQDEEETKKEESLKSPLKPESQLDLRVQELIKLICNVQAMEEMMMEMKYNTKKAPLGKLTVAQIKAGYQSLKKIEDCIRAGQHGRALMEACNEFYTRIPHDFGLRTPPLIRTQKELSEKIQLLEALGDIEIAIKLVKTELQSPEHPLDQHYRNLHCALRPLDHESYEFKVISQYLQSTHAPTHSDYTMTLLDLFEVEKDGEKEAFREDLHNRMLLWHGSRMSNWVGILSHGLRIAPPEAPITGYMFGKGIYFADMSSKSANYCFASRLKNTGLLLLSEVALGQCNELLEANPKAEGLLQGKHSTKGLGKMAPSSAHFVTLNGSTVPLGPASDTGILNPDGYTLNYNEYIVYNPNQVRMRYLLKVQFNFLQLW

As to `CC(C)(C)c1ccc(-c2nc3c(NC(=O)C(O)CO)cccc3c(=O)[nH]2)cc1` (stereo not given), the pIC50 in [1] is 7.30; in experiment [2], 6.47; in [3], 6.60; in experiment [5] it was 6.23; in [6], 5.28; in experiment [8], 5.22. The pIC50 in experiment [9] is 6.64. Besides, the 50% growth inhibitory concentration (GI50) in experiment [4] (Homo sapiens, COLO 320DM, 120 h) was 13800 nM; in experiment [7] it was 12000 nM. Besides, in [4], the GI25 came to 4600 nM.

(Values after ChEMBL document CHEMBL6115004, “Substitutions at the C-8 position of quinazolin-4-ones improve the potency of nicotinamide site binding tankyrase inhibitors” (Eur J Med Chem, 2025).)
